Columns and labels:
HIF-1α = HIF-1α expression in tumor tissues of animal model; format: in vivo, Balb/c mice; details: HT-29 tumor tissue
Description: A colorectal cancer cell (HT-29) cultured in an RPMI1640 medium and then diluted with PBS was subcutaneously implanted into the flank of Balb/c mice. The mice were bred until the colorectal cancer cell grew to about 5 mm. Then, four groups were set up; a control group untreated with calcium lactate for 30 days, an experimental group 1 (peroral, P.O.) administered with 2.5 mM calcium lactate by oral administration, an experimental group 2 (intra tumor, I.T) injected with 2.5 mM calcium lactate around tumor, and an experimental group 3 (subcutaneous, S.C) subcutaneously injected with 25 mM calcium lactate (FIG. 27).
(§1) Colorectal cancer tissues were extracted from the mice of the control group or the experimental group 1 set up in Example 10-1, and expression levels of HIF-1α and VEGF involved in metastasis, invasion, and angiogenesis of tumor expressed therein were compared (FIG. 29). In this case, GAPDH was used as internal control groups.
as §1, with “group 2” for “group 1”, “tumor” for “tumor expressed”, “(FIG. 31).” for “(FIG. 29).”

[1] = test system: VEGF (vascular endothelial growth factor); assay: VEGF mRNA and protein expression; format: cell-based, human; details: HCT-116 and HT-29; 2.5 mM, 24 hours, hypoxia condition
Description: Human colorectal cancer cell lines (HCT-116 and HT-29) were treated with 2.5 mM calcium lactate under hypoxia condition and cultured for 24 hours. Then, mRNA expression levels and protein expression levels of VEGF in each of the cultured cancer cell lines were analyzed (FIGS. 16a and 16b). In this case, human colorectal cancer cell lines cultured without treating with calcium lactate under normoxia or hypoxia condition were used as control groups.

[2] = test system: human colorectal cancer stem cell line; assay: Conformational change of sphere of colorectal cancer stem cell line; format: cell-based; details: vs DMSO control
Description: A human colorectal cancer stem cell line was inoculated into a stem cell culture medium (medium including 1% penicillin/streptomycin and 50 times B27 and including a DMEM medium and an F12 medium mixed at 1:1) and cultured at 37° C. with 5% CO2. The cultured colorectal cancer stem cell line was treated with calcium lactate and then, it was checked whether or not there is the conformational change of a sphere formed by the stem cells (FIG. 22). In this case, a cancer cell treated with DMSO instead of calcium lactate was used as a control group.

[3] = test system: human colorectal cancer cell lines (HCT-116 and HT-29); assay: Calcium level in cancer cells (Fluo-3/AM, confocal microscope); format: cell-based; details: 2.5 mM, 24 hours, vs untreated
Description: Each of human colorectal cancer cell lines (HCT-116 and HT-29) with the cell number of 5×10^5 cells cultured in a cancer cell culture medium (RPMI1640 medium including 10% FBS and 1% penicillin/streptomycin) at 37° C. with 5% CO2 was treated with 2.5 mM calcium lactate and then cultured for 24 hours. The cultured cancer cells were treated with 10 μM Fluo-3/AM calcium indicator and 25% Pluronic F-127, reacted at 37° C. for 30 minutes, applied with fluorescence probes, and then photographed with a confocal microscope (FIG. 2). In this case, cancer cells untreated with calcium lactate were used as control groups.

[4] = test system: human lung cancer cell line (A549); assay: Colony-forming ability, anticancer drug in combination with calcium lactate (6-well plates); format: cell-based; details: 2.5 mM calcium lactate alone, vs control
Description: Human breast cancer cell line (MCF-7) and a human lung cancer cell line (A549) with the cell number of 1×10^3 cells were seeded into an RPMI1640 medium in each of 6-well plates. […]. Then, the colony-forming abilities of the cells were compared. In this case, a human breast cancer cell line (MCF-7) and a human lung cancer cell line (A549) untreated with any drug were used as control groups (FIGS. 42a, 42b, 43a and 43b).
(§2) Human lung cancer cell line (A549) with the cell number of 1×10^3 cells were seeded into an RPMI1640 medium in each of 6-well plates. […]. Then, the colony-forming abilities of the cells were compared. In this case, a human lung cancer cell line (A549) untreated with any drug was used as a control group (FIGS. 44a and 44b).
as §2, with “47a” for “44a”, “47b).” for “44b).”
as §2, with “49a” for “44a”, “49b).” for “44b).”
as §2, with “50a” for “44a”, “50b).” for “44b).”
as §2, with “51a” for “44a”, “51b).” for “44b).”

GLUT 1 and HK2 = GLUT 1 and HK2 expression under hypoxia (real-time PCR, Western blot); format: cell-based, human; details: HCT-116 and HT-29; hypoxia condition
Description: Human colorectal cancer cell lines (HCT-116 and HT-29) were cultured under normoxia or hypoxia condition. The cell lines cultured under the hypoxia condition were treated with calcium lactate, and then, expression levels of GLUT 1 and HK2 in each of the cultured cell lines were compared at the mRNA and protein expression levels (FIG. 7).

[5] = test system: melanoma cell lines (SKMEL-02 and SKMEL-28); assay: Cell migration of melanoma cell lines; format: cell-based; details: 2.5 mM, 24 hours after insert removal, vs untreated
Description: A colorectal cancer cell line HCT-116 with the cell number of 4×10^5 cells was inoculated into a culture container at the center of which an ibidi culture insert having a thickness of 500 μm was placed, and treated with 2.5 mM calcium lactate and then cultured for 24 hours. Then, the insert was removed and further cultured for 12 hours to analyze migration of the cancer cells to a site where the insert was removed using a JuLi Br, Live cell analyzer (NanoEnTek Inc., South Korea) (FIG. 18). In this case, a colorectal cancer cell line cultured without treating with calcium lactate was used as a control group.
Using the same method as Example 8-1, with melanoma cell lines (SKMEL-02 and SKMEL-28) instead of the colorectal cancer cell line and further cultured for 24 hours after removal of the insert was performed, the effect of calcium lactate on migration of the melanoma cell lines was examined (FIG. 20).

## CC(O)C(=O)[O-].CC(O)C(=O)[O-].[Ca+2] (centres unmarked) [calcium lactate]
HIF-1α; experimental group 1, 2.5 mM oral administration
  expression of HIF-1α: inhibited
HIF-1α; experimental group 2, 2.5 mM injected around tumor
  expression of HIF-1α: inhibited
[1]
  VEGF level (mRNA and protein): decreased
[2]
  conformation of the sphere: destructed
[3]
  concentration of calcium in cancer cells: increased
[4]
  colony-forming ability: suppressed
GLUT 1 and HK2
  expression levels of GLUT 1 and HK2 (activation of glycolysis): reduced
[5]
  cell migration (metastatic capacity): relatively low levels of metastasis

Reference: patent US11413261B2, “Pharmaceutical composition for treating cancer comprising lactate metal salt” (METIMEDI PHARMACEUTICALS CO., LTD, priority 2014, dated 2022)
